Assay results published in US20250154180A1, “CRK-LIKE (CRKL) ADAPTOR PROTEIN INHIBITORS AND METHODS OF MAKING AND USING THE SAME” (Rutgers, The State University of New Jersey, priority 2022, published 2025).

What was measured:
CrkL = CrkL (Homo sapiens, UniProt P46109); assay: Thermal shift assay, CrkL; type: binding; conditions: increase of 2° C. or greater in Tm defined as positive
Description: Thermal Shift Assay—Thermal shift assay is a thermal-denaturation assay, which can measure the thermal stability of a tested protein. When a protein of interest is bound to a ligand (or drug), its melting temperature increases. For each single well assay, CrkL (1 μg per well), SYPRO® Orange (1:500 dilution from original stock), candidate drugs (same final concentration as in AlphaScreen) and reaction buffer (1×TBS) were mixed. The total volume for a single well was 10 ul. The assay was quantified by a melt curve on a real-time PCR machine, using melting temperatures from 20° C. to 95° C.
To identify specific pCrk inhibitors, thermal shift and in vitro kinase assays were used to distinguish between these possibilities. In a thermal shift assay, each tested protein (purified Ab1 or CrkL) has a melting temperature (Tm) detected by a protein stain dye such as Sypro Orange. After binding to a drug, the Tm of the tested protein will increase as a higher temperature is required to unfold the protein (FIG. 2A). A total of 71 candidate compounds from different libraries were evaluated, which were previously identified by the initial AlphaScreen assay, on both CrkL and Ab1. An increase of 2° C. or greater in Tm (stable increase in three independent experiments) was defined as a positive result in these thermal shift assays.

Sk-Hep1 tumor = assay: HCC Sk-Hep1 xenograft model; type: in vivo, NSG mice
From the text: To further test whether the tumor growth inhibition effect of NC5 applied to other solid tumors, the HCC-Sk-Hep1cell line and PDAC-BXPC3 cell line xenograft models were used. Subcutaneous injection of 1.5×10^6 SK-Hep1 or BXPC3 cells in NSG mice, Six-ten days after tumor cell injection, the palpable tumor in NSG mice was confirmed.
To test the effects of the disclosed compounds on the xenograft mouse models, the HCC-Sk-Hep1 cell line xenograft model in NSG mice and 4T1-Luc orthotopic syngeneic breast tumor model in Balb/c mice was used. After confirming the palpable tumor in NSG or Balb/c mice. […] Compound III is referred to as “NC5-140-1” and Compound I is referred to as “NC5-140-2” in FIGS. 11A-11C.

[1] = system: pCrkL (T207) in Sk-Hep1 cells; assay: Flow cytometry of H2O2-induced pCrkL, Sk-Hep1; type: cell-based; conditions: 50 uM H2O2 1 hour, then 10 uM compound 24 hours
Description: In this example, Sk-Hep1 cells were pretreated with 50 uM H2O2 for 1 hour to induce activation of pCrkL and were then incubated with 10 uM NC5 or Compound III for 24 hours. pCrkL (T207) expression was determined by flow cytometry.

Chain of CrkL (P46109 whole entry): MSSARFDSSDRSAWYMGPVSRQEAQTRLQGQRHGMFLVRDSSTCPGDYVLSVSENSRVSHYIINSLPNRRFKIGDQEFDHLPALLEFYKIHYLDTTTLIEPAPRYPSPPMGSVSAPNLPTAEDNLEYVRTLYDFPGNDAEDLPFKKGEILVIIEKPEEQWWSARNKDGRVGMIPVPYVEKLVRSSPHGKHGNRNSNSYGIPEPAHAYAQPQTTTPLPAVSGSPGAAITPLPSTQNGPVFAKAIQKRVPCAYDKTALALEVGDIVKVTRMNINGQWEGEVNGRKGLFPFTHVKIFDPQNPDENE

With `CC(C)=CCc1c2c(c3occ(-c4ccc(O)c(O)c4)c(=O)c3c1O)C=CC(C)(C)O2` [Pomiferin, 3′,4′,5-Trihydroxy-6″,6″-dimethyl-6-(3-methylbut-2-en-1-yl)-6″H-pyrano[2″,3″:7,8]isoflavone] the “Tm of CrkL (thermal shift)” value (CrkL) was “the Tm of CrkL increased”, the tumor growth (Sk-Hep1 tumor; Pomiferin administered orally, two-group study) was “suppressed” and the tumor growth (Sk-Hep1 tumor; four-group study, 5.0 μg/g oral gavage) was “inhibit tumor growth”. For the same compound, the median survival (Sk-Hep1 tumor; four-group study, 5.0 μg/g oral gavage, vehicle 26 days) was 34 days, the “tumor sizes before day 25 of inoculation” value (Sk-Hep1 tumor; four-group study, administered orally) was “no significant difference in tumor sizes” and the “median survival, fold longer than vehicle control” value (Sk-Hep1 tumor; two-group study) was 1.54 fold. For the same compound, the median survival (Sk-Hep1 tumor; two-group study, 5.0 μg/g oral, vehicle 24 days) was 37 days and the “H2O2 induced pCrkL protein levels” value [1] was “inhibited H2O2 induced pCrkL protein levels”.
